System: barnyard grass seeds
Assay: Petri dish seed germination method: inhibition of root and stem growth of barnyard grass
Format: in vivo
Conditions: 96 hours incubation
Protocol: (§1) Step 2: Accurately weigh 1 mmol cis-p-menthane-1,8-di-Schiff base compounds and cis-p-menthane-1,8-di-secondary amine compounds respectively, dissolve each of them with 0.25 mL DMF, and add a drop of Tween 80 in each resulted solution. After being fully dissolved, each solution is transferred to a 100 mL volumetric flask respectively and then diluted to the mark with distilled water to obtain a solution with a concentration of 10 mmol/L as the mother liquor. The two-fold dilution method is used to prepare diluted solutions with a series of concentrations (the concentrations of DMF and Tween 80 in the diluted solutions are the same as those in the mother liquor).
(§2) Barnyard grass seeds are placed in a 28° C. incubator and are soaked in an appropriate amount of distilled water for 12 hours there. After the clean water is filtered out, the seeds are then placed in the 28° C. incubator for 24 hours to germinate. Spread 2 pieces of filter paper in each of several Petri dishes, and place 10 barnyard grass seeds with the same size in each dish. Repeat each treatment for three times The dishes are divided into two groups: test dishes and control dishes. Add into each test dish 10 mL of the sample solution with the corresponding concentration of the target compound, and add into each control dish the same amount of the mixture of water, DMF and Tween 80 as the blank control. Add 10 seeds to each of the dishes (both test dishes and control dishes), place them in an artificial climate incubator, and incubate them for 96 hours under a temperature of 28° C., an illumination of 5000 1×, a photoperiod of day:night=16:8 and a relative humidity of 70-80%. The experimental data is processed and analyzed with DPS software to calculate the inhibition rate (y) of cis-p-menthane-1,8-di-secondary amine compounds on the root growth or stem growth of barnyard grass seeds.
Wherein, y is the inhibition rate of root growth or stem growth (%), x0 is the root length or stem length of the control, and x1 is the root length or stem length of the sample.
as §1, with “Accurately” for “Step 2: Accurately”, “cis-p-menthane-1,8-bis-(4-chlorophenyl)Schiff” for “cis-p-menthane-1,8-di-Schiff”, “base” for “base compounds”, “cis-p-menthane-1,8-bis-(4-chlorobenzyl)amine” for “cis-p-menthane-1,8-di-secondary amine compounds”, “(5 mmol/L, 2.5 mmol/L, 1.25 mmol/L, 0.625 mmol/L, 0.3125 mmol/L and 0.1563 mmol/L; the” for “(the”
as §2, with “placed in a 30° C. incubator” for “placed in the 28° C. incubator”, “in each Petri dish,” for “in each of several Petri dishes,”, “each Petri dish, and place” for “several Petri dishes, and place”, “with the above corresponding concentration” for “with the corresponding concentration”, “with DPS software.” for “with DPS software to calculate the inhibition rate (y) of cis-p-menthane-1,8-di-secondary amine compounds on the root growth or stem growth of barnyard grass seeds.”

| SMILES | inhibition rate on the root growth of barnyard grass seeds (0.15625 mmol/L) | inhibition rate on the stem growth of barnyard grass seeds (0.15625 mmol/L) | inhibition rate on the root growth of barnyard grass seeds (0.3125 mmol/L) | inhibition rate on the stem growth of barnyard grass seeds (0.3125 mmol/L) | inhibition rate on the root growth of barnyard grass seeds (0.625 mmol/L) | inhibition rate on the stem growth of barnyard grass seeds (0.625 mmol/L) | inhibition rate on the root growth of barnyard grass seeds (1.25 mmol/L) | inhibition rate on the stem growth of barnyard grass seeds (1.25 mmol/L) | inhibition rate on the root growth of barnyard grass seeds (2.5 mmol/L) | inhibition rate on the stem growth of barnyard grass seeds (2.5 mmol/L) | inhibition rate on the root growth of barnyard grass seeds (5 mmol/L) | inhibition rate on the stem growth of barnyard grass seeds (5 mmol/L) |
| --- | --- | --- | --- | --- | --- | --- | --- | --- | --- | --- | --- | --- |
| CC1(NCc2ccco2)CCC(C(C)(C)NCc2ccco2)CC1 (stereo not drawn) [cis-p-menthane-1,8-bis(furan-2-methyl)amine] | 0% | 0% | 36.3% | 8.6% | 39.0% | 16.1% | 48.8% | 19.3% | 72.7% | 41.1% | 92.7% | 65.3% |
| CC(C)(NCc1ccccn1)[C@H]1CC[C@@](C)(NCc2ccccn2)CC1 [cis-p-menthane-1,8-bis(pyridine-2-methyl)amine] | 18.9% | 23.8% | 20.5% | 26.4% | 33.8% | 30.1% | 61.0% | 46.6% | 95.8% | 65.3% | 100.0% | 88.0% |
| CC1(NCc2cccnc2)CCC(C(C)(C)NCc2cccnc2)CC1 (stereo not drawn) [cis-p-menthane-1,8-bis(pyridine-3-methyl)amine] | 5.7% | 38.0% | 10.2% | 30.6% | 19.2% | 41.5% | 41.4% | 44.6% | 86.1% | 65.3% | 95.2% | 84.9% |
| CC1(NCc2ccncc2)CCC(C(C)(C)NCc2ccncc2)CC1 (stereo not drawn) [cis-p-menthane-1,8-bis(pyridine-4-methyl)amine] | 19.0% | 28.6% | 37.9% | 34.5% | 40.6% | 32.7% | 71.5% | 53.5% | 91.2% | 71.3% | 96.5% | 86.7% |
| CC1(NCc2ccc[nH]2)CCC(C(C)(C)NCc2ccc[nH]2)CC1 (stereo not drawn) [cis-p-menthane-1,8-bis(pyrrole-2-methyl)amine] | 1.7% | 15.4% | 60.5% | 26.5% | 87.7% | 28.6% | 93.1% | 48.2% | 91.9% | 71.5% | 94.4% | 78.3% |
| CC1(NCc2cccs2)CCC(C(C)(C)NCc2cccs2)CC1 (stereo not drawn) [cis-p-menthane-1,8-bis(thiophen-2-methyl)amine] | 0.8% | 13.3% | 1.5% | 28.9% | 5.8% | 39.2% | 50.0% | 45.3% | 75.1% | 51.0% | 86.0% | 59.1% |
| CC1(N=Cc2ccccc2C(F)(F)F)CCC(C(C)(C)N=Cc2ccccc2C(F)(F)F)CC1 (stereo not drawn) [cis-p-menthane-1,8-bis-(2-trifluoromethylbenzyl)Schiff base, reference compound] |  |  | 20.9% | 9% | 15.4% | 13.2% | 2.7% | 17.7% | 20.6% | 12.1% | 34.8% | 21.2% |
| CC(C)(NCc1ccccc1C(F)(F)F)[C@H]1CC[C@@](C)(NCc2ccccc2C(F)(F)F)CC1 [cis-p-menthane-1,8-bis-(2-trifluoromethylbenzyl)amine] | 51.9% | 36.9% | 57.0% | 43.6% | 68.0% | 49.0% | 93. % | 59.6% | 100% | 87.4% | 100% | 90.3% |
| CC(C)(N=Cc1ccc(Br)cc1)[C@H]1CC[C@@](C)(N=Cc2ccc(Br)cc2)CC1 [cis-p-menthane-1,8-bis-(4-bromobenzyl)Schiff base, reference compound] |  |  | −3.2% | 6.5% | 28.5% | 19.6% | 46.8% | 42.3% | 72.6% | 39.3% | 69.4% | 55.9% |
| CC(C)(NCc1ccc(Br)cc1)[C@H]1CC[C@@](C)(NCc2ccc(Br)cc2)CC1 [cis-p-menthane-1,8-bis-(4-bromobenzyl)amine] | 30.7% | 25.2% | 57.6% | 35.4% | 83.4% | 51.7% | 89.6% | 58.5% | 97.4% | 88.2% | 100.0% | 92.3% |

Source: US20210161131A1, “cis-p-Menthane-1,8-Di-secondary Amine Compounds as well as Their Preparation Methods and Application in Weed Control” (RESEARCH INSTITUTE OF FORESTRY NEW TECHNOLOGY, CHINESE …, priority 2019, published 2021)
